Measurements: US20160264570A1, “METHOD OF BLOCKING TRANSMISSION OF MALARIAL PARASITE” (THE UNITED STATES OF AMERICA, AS REPRESENTED BY THE …, priority 2013, published 2016)
Read-outs that look alike come from different tables or passages of the source.

Tests used:
[1] = system: P. falciparum strain 3D7 gametocytes; assay: alamarBlue gametocyte viability assay, strain 3D7
[2] = system: Asexual parasites of P. falciparum strain 3D7; assay: SYBR Green viability assay on asexual parasites; type: cell-based, Plasmodium falciparum; details: read-out: Activity against asexual parasites EC50
[3] = read-out: Gametocytocidal activity EC50, Table 6
[4] = Plasmodium falciparum, 3D7, read-out: Gametocytocidal activity EC50, Table 7
[5] = Plasmodium falciparum, 3D7, Table 7

SMILES | EC50 ([2]; Table 6) [nM] | EC50 [2, 5] [nM] | EC50 [1, 3] [nM] | EC50 [1, 4] [nM]
O=c1ccc2cnc3ccc(-c4ccc(-c5nnn[nH]5)cc4)cc3c2n1-c1cccc(C(F)(F)F)c1 | > 20000 |  | 20900 | 
O=c1ccc2cnc3ccc(-c4ccc(Cl)cc4)cc3c2n1-c1cccc(C(F)(F)F)c1 | 253 |  | 673 | 
COc1ccc(-c2ccc3ncc4ccc(=O)n(-c5cccc(C(F)(F)F)c5)c4c3c2)cc1 | 2460 |  | 3240 | 
CC(=O)c1cccc(-c2ccc3ncc4ccc(=O)n(-c5cccc(C(F)(F)F)c5)c4c3c2)c1 | 352 |  | 1240 | 
O=c1ccc2cnc3ccc(-c4ccc5c(c4)OCC5)cc3c2n1-c1cccc(C(F)(F)F)c1 | 2240 |  | 3310 | 
Cn1ccc2cc(-c3ccc4ncc5ccc(=O)n(-c6cccc(C(F)(F)F)c6)c5c4c3)ccc21 | 2090 |  | 3260 | 
O=c1ccc2cnc3ccc(-c4ccc5c(c4)OCO5)cc3c2n1-c1cccc(C(F)(F)F)c1 | 802 |  | 3130 | 
Cn1c(=O)n(-c2cccc(C(F)(F)F)c2)c2c3cc(-c4cccc(N)c4)ccc3ncc21 |  | 16 |  | 69
Cn1c(=O)n(-c2cccc(C(F)(F)F)c2)c2c3cc(-c4ccc(N)cc4)ccc3ncc21 |  | 16 |  | 69
Cn1c(=O)n(-c2cccc(C(F)(F)F)c2)c2c3cc(-c4ccc(C(N)=O)cc4)ccc3ncc21 |  | 20 |  | 109
Cn1c(=O)n(-c2cccc(C(F)(F)F)c2)c2c3cc(-c4ccc(C(N)=O)nc4)ccc3ncc21 |  | 8 |  | 43
Cn1c(=O)n(-c2cccc(C(F)(F)F)c2)c2c3cc(-c4cnc(N)nc4)ccc3ncc21 |  | 7 |  | 31

Continued, in another order:

EC50 ([2]; Table 6) [nM] | EC50 [2, 5] [nM] | SMILES | EC50 [1, 3] [nM] | EC50 [1, 4] [nM]
580 |  | O=c1ccc2cnc3ccc(-c4ccc(F)cc4)cc3c2n1-c1cccc(C(F)(F)F)c1 | 2660 | 
129 |  | O=c1ccc2cnc3ccc(-c4ccc(O)cc4)cc3c2n1-c1cccc(C(F)(F)F)c1 | 165 | 
 | 59 | Cc1ccc(-c2ccc3ncc4[nH]c(=O)n(-c5cccc(C(F)(F)F)c5)c4c3c2)cn1 |  | 443
 | 153 | Nc1ccc(-c2ccc3ncc4[nH]c(=O)n(-c5cccc(C(F)(F)F)c5)c4c3c2)cc1 |  | 630
 | 35 | CC(=O)Nc1ccc(-c2ccc3ncc4[nH]c(=O)n(-c5cccc(C(F)(F)F)c5)c4c3c2)cn1 |  | 123
 | 398 | O=c1[nH]c2cnc3ccc(-c4ccc(O)cc4)cc3c2n1-c1cccc(C(F)(F)F)c1 |  | 1420
 | 137 | Nc1cccc(-c2ccc3ncc4[nH]c(=O)n(-c5cccc(C(F)(F)F)c5)c4c3c2)c1 |  | 531
 | 211 | O=c1[nH]c2cnc3ccc(-c4ccncc4)cc3c2n1-c1cccc(C(F)(F)F)c1 |  | 1240
 | 90 | O=c1[nH]c2cnc3ccc(-c4ccc5[nH]cnc5c4)cc3c2n1-c1cccc(C(F)(F)F)c1 |  | 543
 | 622 | CS(=O)(=O)c1ccc(-c2ccc3ncc4[nH]c(=O)n(-c5cccc(C(F)(F)F)c5)c4c3c2)cc1 |  | 2050
 | 5780 | O=c1[nH]c2cnc3ccc(-c4cnc5ccccc5c4)cc3c2n1-c1cccc(C(F)(F)F)c1 |  | 212000
 | 57 | Nc1ncc(-c2ccc3ncc4[nH]c(=O)n(-c5cccc(C(F)(F)F)c5)c4c3c2)cn1 |  | 246
 | 1400 | O=c1[nH]c2cnc3ccc(-c4cccnc4)cc3c2n1-c1cccc(C(F)(F)F)c1 |  | 5570
 | 45 | NC(=O)c1ccc(-c2ccc3ncc4[nH]c(=O)n(-c5cccc(C(F)(F)F)c5)c4c3c2)cc1 |  | 227
